Data taken from patent publication US20230085307A1, “PYRIDAZINONE COMPOUND AND HERBICIDE” (NISSAN CHEMICAL CORPORATION, priority 2019, published 2023).

Experiments:
redroot pigweed = assay: Test Example 4: herbicidal effect by soil treatment (Table 19, symbol N); format: in vivo, redroot pigweed (Amaranthus retroflexus); details: amount of applied herbicide 320 g/ha
Summary of the method: (§1)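 Three weeks of greenhouse growth at 25° C. to 30° C. followed a uniform surface spray of water-diluted emulsion at a predetermined herbicide amount. Seeds had been sown beforehand under about 1.5 cm of sterilized diluvial soil. Grading followed criteria set out in an earlier test.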

wild oat [1] = assay: Test Example 4: herbicidal effect by soil treatment (Table 19, symbol I); format: in vivo, wild oat (Avena fatua); details: amount of applied herbicide 320 g/ha
Summary of the method: as §1

false cleavers [2] = assay: Test Example 4: herbicidal effect by soil treatment (Table 19, symbol Q); format: in vivo, false cleavers (Galium spurium); details: amount of applied herbicide 320 g/ha
Summary of the method: as §1

wild oat [3] = assay: Test Example 5: herbicidal effect by foliage application, plastic box (Table 20, symbol I); format: in vivo, wild oat (Avena fatua); details: foliage application, 320 g/ha, three weeks after application
Summary of the method: (§2)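 Plants sown in sterilized diluvial soil and grown 14 days in a greenhouse at 25° C to 30° C, then sprayed on the foliage with the compound's emulsion diluted in water to a predetermined herbicide amount. Injury to weeds and crops scored three weeks after application on a visual rating scale.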

Italian ryegrass = assay: Test Example 4: herbicidal effect by soil treatment (Table 19, symbol K); format: in vivo, Italian ryegrass (Lolium multiflorum); details: amount of applied herbicide 320 g/ha
Summary of the method: as §1

barnyard grass [4] = assay: Test Example 3: herbicidal effect by foliage application, Wagner pot (Table 18, symbol H); format: in vivo, barnyard grass (Echinochloa crus-galli); details: 320 g/ha
Summary of the method: (§3)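 Plants were sown in alluvial soil held under 0.1–0.5 cm standing water and grown 14 days in a greenhouse at 25–30 °C. An emulsifiable formulation, water-diluted to the set dose, was then sprayed onto the foliage, and effects were scored three weeks later using previously defined criteria.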

lambsquarters = assay: Test Example 5: herbicidal effect by foliage application, plastic box (Table 20, symbol O); format: in vivo, lambsquarters (Chenopodium album); details: foliage application, 320 g/ha, three weeks after application
Summary of the method: as §2

Chinese sprangletop = assay: Test Example 3: herbicidal effect by foliage application, Wagner pot (Table 18, symbol D); format: in vivo, chinese sprangletop (Leptochloa chinensis); details: 320 g/ha
Summary of the method: as §3

Japanese bulrush = assay: Test Example 1: herbicidal activity, application before weed generation under submerged conditions (Table 16, symbol B); format: in vivo, Japanese bulrush (Schoenoplectus juncoides); details: amount of applied herbicide 320 g/ha
Summary of the method: (§4)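 Submerged Wagner pots (alluvial soil, 4 cm water) sown with weed seeds and planted with 2.5-leaf rice seedlings; emulsifiable concentrate diluted in water applied to water surface on sowing day. Held in greenhouse at 25-30 °C; injury scored 0-5 by herbicidal rate after three weeks.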

oval-leafed pondweed = assay: Test Example 1: herbicidal activity, application before weed generation under submerged conditions (Table 16, symbol C); format: in vivo, oval-leafed pondweed (Monochoria vaginalis); details: amount of applied herbicide 320 g/ha
Summary of the method: as §4

persian speedwell = assay: Test Example 5: herbicidal effect by foliage application, plastic box (Table 20, symbol R); format: in vivo, Persian speedwell (Veronica persica); details: foliage application, 320 g/ha, three weeks after application
Summary of the method: as §2

southern crabgrass [5] = assay: Test Example 5: herbicidal effect by foliage application, plastic box (Table 20, symbol F); format: in vivo, southern crabgrass (Digitaria ciliaris); details: foliage application, 320 g/ha, three weeks after application
Summary of the method: as §2

false cleavers [6] = assay: Test Example 5: herbicidal effect by foliage application, plastic box (Table 20, symbol Q); format: in vivo, false cleavers (Galium spurium); details: foliage application, 320 g/ha, three weeks after application
Summary of the method: as §2

southern crabgrass [7] = assay: Test Example 4: herbicidal effect by soil treatment (Table 19, symbol F); format: in vivo, southern crabgrass (Digitaria ciliaris); details: amount of applied herbicide 320 g/ha
Summary of the method: as §1

blackgrass [8] = assay: Test Example 4: herbicidal effect by soil treatment (Table 19, symbol J); format: in vivo, blackgrass (Alopecurus myosuroides); details: amount of applied herbicide 320 g/ha
Summary of the method: as §1

blackgrass [9] = assay: Test Example 5: herbicidal effect by foliage application, plastic box (Table 20, symbol J); format: in vivo, blackgrass (Alopecurus myosuroides); details: foliage application, 320 g/ha, three weeks after application
Summary of the method: as §2

barnyard grass [10] = assay: Test Example 5: herbicidal effect by foliage application, plastic box (Table 20, symbol H); format: in vivo, barnyard grass (Echinochloa crus-galli); details: foliage application, 320 g/ha, three weeks after application
Summary of the method: as §2

windgrass = assay: Test Example 5: herbicidal effect by foliage application, plastic box (Table 20, symbol L); format: in vivo, windgrass (Apera spica-venti); details: foliage application, 320 g/ha, three weeks after application
Summary of the method: as §2

## CCCC(=O)Oc1c(C)nn(C)c(=O)c1-c1c(-c2ccc(F)cc2OCC)sc2cc(OC)ccc12 [3-079]
Redroot pigweed
  N: redroot pigweed, herbicidal effect grade: 4 (Herbicidal rate of 70% or more and less than 90%)
Wild oat [1]
  I: wild oat, herbicidal effect grade: 0 (Herbicidal rate of 5% or less (almost no effect))
False cleavers [2]
  Q: false cleavers, herbicidal effect grade: 4 (Herbicidal rate of 70% or more and less than 90%)
Wild oat [3]
  I: wild oat, herbicidal effect grade: 5 (Herbicidal rate of 90% or more (almost completely withered))
Italian ryegrass
  K: Italian ryegrass, herbicidal effect grade: 0 (Herbicidal rate of 5% or less (almost no effect))
Barnyard grass [4]
  herbicidal effect on barnyard grass (H): 5 (Herbicidal rate of 90% or more (almost completely withered))
lambsquarters
  O: lambsquarters, herbicidal effect grade: 5 (Herbicidal rate of 90% or more (almost completely withered))
Chinese sprangletop
  herbicidal effect on Chinese sprangletop (D): 4 (Herbicidal rate of 70% or more and less than 90%)
Japanese bulrush
  Herbicidal effect, B: Japanese bulrush: 5 (Herbicidal rate of 90% or more (almost completely withered))
oval-leafed pondweed
  Herbicidal effect, C: oval-leafed pondweed: 5 (Herbicidal rate of 90% or more (almost completely withered))
Persian speedwell
  R: persian speedwell, herbicidal effect grade: 5 (Herbicidal rate of 90% or more (almost completely withered))
Southern crabgrass [5]
  F: southern crabgrass, herbicidal effect grade: 5 (Herbicidal rate of 90% or more (almost completely withered))
False cleavers [6]
  Q: false cleavers, herbicidal effect grade: 5 (Herbicidal rate of 90% or more (almost completely withered))
Southern crabgrass [7]
  F: southern crabgrass, herbicidal effect grade: 4 (Herbicidal rate of 70% or more and less than 90%)
Blackgrass [8]
  J: blackgrass, herbicidal effect grade: 2 (Herbicidal rate of 20% or more and less than 40%)
Blackgrass [9]
  J: blackgrass, herbicidal effect grade: 4 (Herbicidal rate of 70% or more and less than 90%)
Barnyard grass [10]
  H: barnyard grass, herbicidal effect grade: 5 (Herbicidal rate of 90% or more (almost completely withered))
windgrass
  L: windgrass, herbicidal effect grade: 5 (Herbicidal rate of 90% or more (almost completely withered))

## COc1ccc2c(-c3c(O)c(C)nn(C)c3=O)c(-c3ccc4c(c3)OCCO4)sc2c1 [3-082]
Redroot pigweed
  N: redroot pigweed, herbicidal effect grade: 3 (Herbicidal rate of 40% or more and less than 70%)
Wild oat [1]
  I: wild oat, herbicidal effect grade: 0 (Herbicidal rate of 5% or less (almost no effect))
False cleavers [2]
  Q: false cleavers, herbicidal effect grade: 5 (Herbicidal rate of 90% or more (almost completely withered))
Wild oat [3]
  I: wild oat, herbicidal effect grade: 0 (Herbicidal rate of 5% or less (almost no effect))
Italian ryegrass
  K: Italian ryegrass, herbicidal effect grade: 0 (Herbicidal rate of 5% or less (almost no effect))
Barnyard grass [4]
  herbicidal effect on barnyard grass (H): 5 (Herbicidal rate of 90% or more (almost completely withered))
lambsquarters
  O: lambsquarters, herbicidal effect grade: 5 (Herbicidal rate of 90% or more (almost completely withered))
Chinese sprangletop
  herbicidal effect on Chinese sprangletop (D): 3 (Herbicidal rate of 40% or more and less than 70%)
Japanese bulrush
  Herbicidal effect, B: Japanese bulrush: 5 (Herbicidal rate of 90% or more (almost completely withered))
oval-leafed pondweed
  Herbicidal effect, C: oval-leafed pondweed: 4 (Herbicidal rate of 70% or more and less than 90%)
Persian speedwell
  R: persian speedwell, herbicidal effect grade: 5 (Herbicidal rate of 90% or more (almost completely withered))
Southern crabgrass [5]
  F: southern crabgrass, herbicidal effect grade: 0 (Herbicidal rate of 5% or less (almost no effect))
False cleavers [6]
  Q: false cleavers, herbicidal effect grade: 5 (Herbicidal rate of 90% or more (almost completely withered))
Southern crabgrass [7]
  F: southern crabgrass, herbicidal effect grade: 0 (Herbicidal rate of 5% or less (almost no effect))
Blackgrass [8]
  J: blackgrass, herbicidal effect grade: 0 (Herbicidal rate of 5% or less (almost no effect))
Blackgrass [9]
  J: blackgrass, herbicidal effect grade: 1 (Herbicidal rate of 5% or more and less than 20%)
Barnyard grass [10]
  H: barnyard grass, herbicidal effect grade: 3 (Herbicidal rate of 40% or more and less than 70%)
windgrass
  L: windgrass, herbicidal effect grade: 0 (Herbicidal rate of 5% or less (almost no effect))

## CCCC(=O)Oc1c(C)nn(C)c(=O)c1-c1c(-c2ccc3c(c2)OCCO3)sc2cc(OC)ccc12 [3-083]
Redroot pigweed
  N: redroot pigweed, herbicidal effect grade: 0 (Herbicidal rate of 5% or less (almost no effect))
Wild oat [1]
  I: wild oat, herbicidal effect grade: 0 (Herbicidal rate of 5% or less (almost no effect))
False cleavers [2]
  Q: false cleavers, herbicidal effect grade: 4 (Herbicidal rate of 70% or more and less than 90%)
Wild oat [3]
  I: wild oat, herbicidal effect grade: 0 (Herbicidal rate of 5% or less (almost no effect))
Italian ryegrass
  K: Italian ryegrass, herbicidal effect grade: 0 (Herbicidal rate of 5% or less (almost no effect))
Barnyard grass [4]
  herbicidal effect on barnyard grass (H): 4 (Herbicidal rate of 70% or more and less than 90%)
lambsquarters
  O: lambsquarters, herbicidal effect grade: 0 (Herbicidal rate of 5% or less (almost no effect))
Chinese sprangletop
  herbicidal effect on Chinese sprangletop (D): 4 (Herbicidal rate of 70% or more and less than 90%)
Japanese bulrush
  Herbicidal effect, B: Japanese bulrush: 4 (Herbicidal rate of 70% or more and less than 90%)
oval-leafed pondweed
  Herbicidal effect, C: oval-leafed pondweed: 4 (Herbicidal rate of 70% or more and less than 90%)
Persian speedwell
  R: persian speedwell, herbicidal effect grade: 5 (Herbicidal rate of 90% or more (almost completely withered))
Southern crabgrass [5]
  F: southern crabgrass, herbicidal effect grade: 3 (Herbicidal rate of 40% or more and less than 70%)
False cleavers [6]
  Q: false cleavers, herbicidal effect grade: 5 (Herbicidal rate of 90% or more (almost completely withered))
Southern crabgrass [7]
  F: southern crabgrass, herbicidal effect grade: 0 (Herbicidal rate of 5% or less (almost no effect))
Blackgrass [8]
  J: blackgrass, herbicidal effect grade: 0 (Herbicidal rate of 5% or less (almost no effect))
Blackgrass [9]
  J: blackgrass, herbicidal effect grade: 0 (Herbicidal rate of 5% or less (almost no effect))
Barnyard grass [10]
  H: barnyard grass, herbicidal effect grade: 2 (Herbicidal rate of 20% or more and less than 40%)
windgrass
  L: windgrass, herbicidal effect grade: 0 (Herbicidal rate of 5% or less (almost no effect))
